Data as given in patent publication US8466203B2, “Method of stabilizing human eye tissue by reaction with nitrite and related agents such as nitro compounds” (priority 2006, dated 2013).
“And” between values parts separate entries of the source, which are not always exact repeats. Identical values can stand only once. Like-named read-outs stand apart in the source and are kept apart here.

Tests used:
porcine sclera [1] = test: Yellowing of cross-linked scleral tissue
Protocol: Additional β-nitro alcohols related to 2-nitroethanol were also tested for scleral cross-linking efficacy. In addition to 2-nitroethanol, there was 2-nitro-1-propanol, 3-nitro-2-pentanol, and 2-nitrophenol. […] This effect was not blocked by addition of equimolar urea (Table 5).

porcine sclera [2] = test: Thermal shrinkage temperature analysis of porcine scleral strips; conditions: for T50 (temperature at 50% of maximal shrinkage) / T50 Δ (change in 50% shrinkage temperature compared to control) / Ti (temperature at 1% absolute shrinkage): pH 7.4, 37° C., 96 hrs
Text: (§1) Thermal shrinkage temperature or denaturation temperature (Ts) is a technique that has been used for decades in studying collagen cross-linking. As collagen fibers are progressively heated, a threshold temperature is reached at which point disruption of hydrogen bonding in the collagen molecule triple helix occurs, resulting in unwinding of the triple helices. The denaturation of tertiary protein structure results in a rapid shrinkage of the tissue of up to 80%. This phenomenon can be expressed in various ways including temperature of onset of tissue shrinkage, temperature at maximal tissue shrinkage, and temperature at 50% of maximal tissue shrinkage, for example. In addition, differential scanning calorimetry (DSC) is related to thermal shrinkage temperature analysis and is widely used to evaluate biomaterial cross-linking. Thermal shrinkage temperature is essentially a simplified version of DSC and can be used effectively to screen the cross-linking efficacy of compounds. For the purposes of this study, the onset of shrinkage is considered the Ts and the temperature at which 50% of maximal shrinkage has occurred is T50. Graphs depicting the relationship between degree of shrinkage and temperature indicate differences in degree of cross-linking between groups. Thus, stabilization of collagen fiber structures through non-enzymatic cross-linking increases Ts and T50.
(§2) This system can perform multiple Ts assays in succession, allowing rapid screening of a number of potential cross-linking agents and conditions. […] Inlet and outlet fittings allow for constant circulation of heated water which is modulated by a digitally controlled water bath equipped with a water pump. The entire box is placed on a digital photo scanner connected to a Windows based computer. Beginning at 50° C. the temperature is raised at a rate of 1° C./min and serial scans are taken at every degree increase in temperature up to 80° C. […] As the tissue shrinks, the images are captured by the scanner. The image files are later analyzed for 2-dimensional area using NIH Image J software and % shrinkage calculations are made using Microsoft Excel for graphing purposes. This method obviates the need for removal of tissue pieces from the water bath with manual micrometer measurements as described by the UVR group (Spoerl, E., et al., 2004).
Using this simple, reproducible assay enables the screening of a number of compounds for cross-linking efficacy. This is first performed using porcine eyes because of their low cost. Follow up studies can be performed using human eyes. Porcine eyes are obtained within 6 hrs of sacrifice (Hatfield Meat Packing, Inc., Hatfield Pa.). Eyes showing clear corneas and intact epithelia are chosen for study. […] Each strip is then cross-linked using a nitro agent. […] Opthalmol. 1999; 117:166-169) for 24-96 hrs. Following incubation, the samples are evaluated for degree of cross-linking using the Ts assay as described above.
From the data, Ts curves are generated for each compound and condition studied. Each data point is the average of 3 independent samples.

porcine cornea [3] = test: Gross stiffness of porcine corneal strips handled with a forceps; conditions: 100 mM, pH 7.4, 37° C., 48 hrs
Protocol: Fresh porcine corneal strips and corneoscleral complexes obtained within 6 hrs of sacrifice and incubated at 37° C. in buffered solutions (pH 7.4) containing 20% Dextran (T500) and either 100 mM NaNO2 or 100 mM of one each of the specified β-nitro alcohols
(§3) These images were taken from tissues cross-linked with nitrite and the β-nitro alcohols 2-nitroethanol, 2-nitro-1-propanol, and […], for 48 hrs. […] Fresh porcine corneal strips and corneoscleral complexes were obtained within 6 hrs of sacrifice and incubated at 37° C. in buffered solutions (pH 7.4) containing 20% Dextran (T500) and either 100 mM NaNO2 or 100 mM of one each of the β-nitro alcohols. After 48 hrs, the following images were obtained. […] FIGS. 13 (B and D)

[4] = system: primary bovine corneal endothelial cells; conditions: for Cytotoxic threshold (using trypan blue): 48 hrs exposure
porcine cornea [5] = test: Yellowing of cross-linked porcine cornea; conditions: 100 mM concentration
Protocol: as §3
As such, the effects on corneal light transmission induced by cross-linking with β-nitro alcohols was evaluated using a method adopted from Dillon et al 2004.

porcine cornea [6] = test: Light transmission of cross-linked corneo-scleral complexes; conditions: 10 mM, 96 hrs incubation
Protocol: Following a 96 hrs incubation period at 10 mM, the corneo-scleral complexes were mounted between 2 pieces of quartz, previously determined to have no ultraviolet absorption. […] The sample was then mounted in a vertical, adjustable stage apparatus specifically designed to accommodate a PC 1000 Fibre Optic Spectrometer (Ocean Optics, Inc.). A xenon lamp was used as a light source and was connected to the upper half of the stage. The lower half was connected to a high sensitivity CCD mounted on a card which is installed in a PC computer. The CCD array detector captures a full wavelength spectrum (i.e. 200-1000 nm).
The absorption spectrum for each sample was recorded and exported into Microcal Origin 6.1 for processing. […] The scattering component was subtracted from the observed absorption spectrum by first fitting the scattering (non-absorption) portion of the spectrum (e.g. 700-800 nm) to the formula A=aλ^b, where A is the absorbance, λ is the wavelength, b is the order of the relationship between absorbance and wavelength, and a is a constant. The background signal due to scattering for all other wavelengths is then estimated using the coefficients determined from the fit. […] After scatter correction, the transmission spectrum for each absorption spectrum was calculated according to the Beer-Lambert law (T=10^−A×100%), where T is the transmission and A is the absorbance at each wavelength. […]

porcine cornea [7] = test: Thermal shrinkage temperature analysis of porcine corneal strips
Text: as §1, §2
Using this simple, reproducible assay enables the screening of a number of compounds for cross-linking efficacy. This is first performed using porcine eyes because of their low cost. Follow up studies can be performed using human eyes. Porcine eyes are obtained within 6 hrs of sacrifice (Hatfield Meat Packing, Inc., Hatfield Pa.). Eyes showing clear corneas and intact epithelia are chosen for study. […] Each strip is then cross-linked using a nitro agent. The incubation solution is 20% Dextran (T500) [to prevent tissue swelling] in 0.2 M NaH2PO4/Na2HPO4 (pH 7.4) with various concentrations of nitro agent (i.e. 1, 10, and 100 mM). […] The samples are then placed in 2 mL microcentrifuge tubes with 1 mL of incubation solution and reacted in a 34° C. water bath (simulating corneal temperature—Girardin, F., et al., “Relationship between corneal temperature and finger temperature,” Arch. Opthalmol. 1999; 117:166-169) for 24-96 hrs. Following incubation, the samples are evaluated for degree of cross-linking using the Ts assay as described above.

O=[N+]([O-])CCO [2-nitroethanol]
propensity to induce tissue yellowing (porcine sclera [1]): greatest propensity to induce tissue yellowing
T50 (temperature at 50% of maximal shrinkage) (porcine sclera [2]; 1 mM reagent): 65.7 °C
T50 Δ (change in 50% shrinkage temperature compared to control) (porcine sclera [2]; 1 mM reagent): 0.4 °C
Ti (temperature at 1% absolute shrinkage) (porcine sclera [2]; 1 mM reagent): 62.9 °C
Ts shift (porcine sclera [2]; 1 mM serially applied over 10 days): 2-3 °C
shift in Ts (in words) (porcine sclera [2]; 1 mM, 4 days (96 hrs) without replacing the incubation solution): did not produce a shift in Ts
T50 shift (porcine sclera [2]; 1 mM, incubation solution exchanged daily, 6 days): 1.3 °C
T50 shift (porcine sclera [2]; 1 mM, incubation solution exchanged daily, 10 days): 3.2 °C
T50 shift (porcine sclera [2]; 1 mM, incubation solution exchanged daily, 14 days): 5.4 °C and 5.6 °C
T50 (temperature at 50% of maximal shrinkage) (porcine sclera [2]; 10 mM reagent): 69.8 °C
T50 Δ (change in 50% shrinkage temperature compared to control) (porcine sclera [2]; 10 mM reagent): 4.5 °C
Ti (temperature at 1% absolute shrinkage) (porcine sclera [2]; 10 mM reagent): 67.2 °C
maximal increase of Ts (porcine sclera [2]; 100 mM): 8 °C
T50 (temperature at 50% of maximal shrinkage) (porcine sclera [2]; 100 mM reagent): 73.7 °C
Ti (temperature at 1% absolute shrinkage) (porcine sclera [2]; 100 mM reagent): 70.7 °C
T50 shift (porcine sclera [2]; 100 mM, 24 hrs of incubation): 1.4 °C
T50 shift (porcine sclera [2]; 100 mM, 48 hrs of incubation): 2.4 °C
T50 shift (porcine sclera [2]; 100 mM, 72 hrs of incubation): 5.3 °C
blocking of the cross-linking effect by equimolar urea (porcine sclera [2]; equimolar urea (nitrous acid trapping agent)): not blocked
stiffness change when handled with a forceps (porcine cornea [3]): dramatic stiffness change
Cytotoxic threshold (using trypan blue) ([4]; 0.1 mM): −
Cytotoxic threshold (using trypan blue) ([4]; 0.5 mM): −
Cytotoxic threshold (using trypan blue) ([4]; 0.75 mM): −
Cytotoxic threshold (using trypan blue) ([4]; 1 mM): −
Cytotoxic threshold (using trypan blue) ([4]; 2 mM): −
Cytotoxic threshold (using trypan blue) ([4]; 3 mM): +
Cytotoxic threshold (using trypan blue) ([4]; 5 mM): +
Cytotoxic threshold (using trypan blue) ([4]; 7 mM): +
Cytotoxic threshold (using trypan blue) ([4]; 10 mM): +
tolerable level ([4]; bovine corneal endothelial cells): 0.0273%
highest tolerated level ([4]; bovine corneal endothelial cells, 48 hrs): 2 mM and 3 mM
yellowing effect (porcine cornea [5]): significant yellowing effect
decrease in light transmission, 400-500 nm blue light region (porcine cornea [6]): 3.6%
Ts onset shift (porcine cornea [7]; 1 mM serially applied over 6 days): 1-2 °C
shift in Ts (in words) (porcine cornea [7]; 1 mM, 4 days without replacing the incubation solution): did not produce a shift in Ts
Ts onset shift (porcine cornea [7]; 10 mM): 5 °C
Ts onset shift (porcine cornea [7]; 100 mM): 8 °C
